Results published in patent US11499185B2, “Nucleic acid sequencing methods and systems” (OMNIOME, INC., priority 2015, dated 2022).

Target: T1, HIV reverse transcriptase (Human immunodeficiency virus type 1 group M subtype B, UniProt P04585)
T1 construct: Recombinant purified HIV reverse transcriptase (HIV RT); purchased Worthington Biochemical Corp (Lakewood, N.J.)
Assay: Binding of HIV RT to biosensor coated with primer-template (Octet QK), with dNTP and NNRTI
Design: species or system HIV-1
Experimental: Template oligonucleotide Btn-4460-45095 and primer oligonucleotide 4496-4509AS were synthesized and analyzed (liquid chromatography-mass spectrometry (LC-MS) and electrospray ionization (ESI)) by Integrated DNA Technologies (Coralville, Iowa). Oligonucleotides were prepared in TE Buffer (10 mM Tris pH 8.0, 0.1 mM EDTA) to 100 μM. Primer and template oligonucleotides were combined (10 μM each strand) in a tube containing Annealing Buffer (10 mM Tris pH 8.0, 0.1 mM EDTA, 80 mM KCl). The tube containing primer-template solution was loaded onto a dry heat block (95° C. for 5 min), and the block was transferred to the bench top to anneal the strands by gradual cooling to ambient temperature. Uncompetitive NNRTI compounds (Pitta et al., J. Enzyme Inhib. Med. Chem. 28(10):113-22 (2013)), which is incorporated by reference herein in its entirety), were from Epigen Biosciences, Inc. (San Diego, Calif.). NNRTI compounds 7 (3-4-chloro-benzo[d]thiazol-2yl)-2-(2-chloro-6-fluorophenyl)thiazolidin-4-one) and 18 (3-(6-ethoxy-benzo[d]thiazol-2-yl)-2-(2-chloro-6-fluorophenyl)thiazolidin-4-one) were dissolved in dimethylsulfoxide (DMSO) to concentrations of 25.0 mM and 15.0 mM, respectively. Recombinant purified HIV reverse transcriptase (HIV RT) was from Worthington Biochemical Corp (Lakewood, N.J.). Ultra-pure bovine serum albumin (BSA) was from Ambion (Foster City, Calif.). All reagents and solutions were molecular biology grade.
Primer-template duplex was diluted ([…]) into Annealing Buffer. Immediately before use, HIV Reverse Transcriptase was pre-diluted into Enzyme Diluent (50 mM Tris, pH 8.0, 8 mM MgCl2). Binding buffer (50 mM Tris, pH 8.0, 160 mM KCl, 0.5 mM EDTA, 11 mM MgCl2, 0.3% (v/v) Triton X-100, 5.3 mM dithiothreitol (DTT), 100 μg/mL bovine serum albumin (BSA), 100 μM dNTP (dATP, dTTP, dGTP or dCTP), 100 nM HIV RT). NNRTI compounds were pre-diluted with DMSO immediately before being spiked into Binding Buffer. Reaction Buffer was Binding Buffer without NNRTI, dNTP or HIV RT enzyme. Buffer containing Primer-Template (PT), PT Wash Buffer, Binding buffer containing one dNTP, and Reaction Buffer were loaded (200 μL/well) into a Greiner 96-well black microplate (Sigma-Aldrich, St. Louis, Mo.; catalog number M9685). Streptavidin (SA) Biosensors (Pall ForteBio Corp., Menlo Park, Calif.; catalog number 18-5019) were re-hydrated in Annealing Buffer for approximately 10 minutes before use. The Octet QK biosensor system (Pall ForteBio Corp., Menlo Park, Calif.) was set for 30° C. operation and was programmed to coat the biosensors with Primer-Template and wash away unbound Primer-Template with PT Wash Buffer. Biosensors were transferred to Binding Buffer containing HIV RT+dCTP±NNRTI (association phase) followed by Reaction Buffer (dCTP incorporation and dissociation phase). Similarly, biosensors were transferred cyclically to solutions containing individual deoxyribonucleoside triphosphates (dATP, dGTP, dCTP or dTTP) as indicated. Cycles of binding and incorporation were repeated multiple times.
Data were imported into Microsoft Excel and Prism software (GraphPad Software, San Diego, Calif.) for display. The progress of binding and dissociation reactions was smoothed either by averaging within a 19.4-second window or by Prism software (19.4-second window and 6th-order smoothing polynomial).

| Structure (SMILES) | binding to biosensor coated with primer-template in the association phase (HIV RT + incorrect nucleotides dCTP and dATP (cycles 7 and 8) + NNRTI 40 μM, FIG. 7A) | binding to biosensor coated with primer-template in the association phase (HIV reverse transcriptase + correct dNTP + NNRTI 40 μM, ALK primer-template, FIG. 7A) | binding to biosensor coated with primer-template in the association phase (control: HIV RT with 40 μM NNRTI, no dNTP, FIG. 7A) | binding to biosensor coated with primer-template in the association phase (HIV RT + incorrect nucleotide dTTP (cycle 4) + NNRTI 80 μM, FIG. 8) | binding to biosensor coated with primer-template in the association phase (HIV reverse transcriptase + correct dNTP + NNRTI 80 μM, ALK primer-template, FIG. 8) | binding to biosensor coated with primer-template in the association phase (control: HIV RT with 80 μM NNRTI, no dNTP, FIG. 8) |
| --- | --- | --- | --- | --- | --- | --- |
| O=C1CSC(c2c(F)cccc2Cl)N1c1nc2c(Cl)cccc2s1 (stereo not drawn) [NNRTI compound 7] | did not produce a binding peak | distinct peaks for binding | did not produce appreciable binding peaks | – | – | – |
| CCOc1ccc2nc(N3C(=O)CSC3c3c(F)cccc3Cl)sc2c1 (stereo not drawn) [NNRTI compound 18, 3-(6-ethoxy-benzo[d]thiazol-2-yl)-2-(2-chloro-6-fluorophenyl)thiazolidin-4-one] | – | – | – | did not show a binding peak | distinct peaks for binding | did not produce appreciable binding peaks |
